Laboratory results reported in PubChem BioAssay (NCI).
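Cultured in 96-well plates, cells were exposed to test compound for 48 hours across five concentrations. GI50 = concentration required for 50% inhibition of growth. TGI is the concentration that stops growth completely.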

What was measured:
Assay in all cases: growth of human tumour cells (NCI), 48 h
SK-OV-3 ovarian = test system: SK-OV-3 ovarian
UACC-62 melanoma = test system: UACC-62 melanoma
OVCAR-8 ovarian = test system: OVCAR-8 ovarian
PC-3 prostate = test system: PC-3 prostate
MCF7 breast = test system: MCF7 breast
BT-549 breast = test system: BT-549 breast
DU-145 prostate = test system: DU-145 prostate
M14 melanoma = test system: M14 melanoma
SK-MEL-28 melanoma = test system: SK-MEL-28 melanoma
NCI-H522 lung = test system: NCI-H522 lung
MOLT-4 leukemia = test system: MOLT-4 leukemia
HL-60(TB) leukemia = test system: HL-60(TB) leukemia
RXF 393 renal = test system: RXF 393 renal
UACC-257 melanoma = test system: UACC-257 melanoma
U251 CNS = test system: U251 CNS
786-0 renal = test system: 786-0 renal
HOP-62 NSCLC = test system: HOP-62 NSCLC
EKVX NSCLC = test system: EKVX NSCLC
MALME-3M melanoma = test system: MALME-3M melanoma
SW-620 colon = test system: SW-620 colon
SF-268 CNS = test system: SF-268 CNS
UO-31 renal = test system: UO-31 renal
SK-MEL-5 melanoma = test system: SK-MEL-5 melanoma
SNB-75 CNS = test system: SNB-75 CNS
NCI-H460 lung = test system: NCI-H460 lung

## N#CC1=C(N)N=C(N2CCCCC2)C(C#N)C12Nc1ccccc1S2 (stereo not given)
SK-OV-3 ovarian
  GI50: 39.1 µM
  TGI: > 100 µM
UACC-62 melanoma
  GI50: 16.9 µM
  TGI: 49.1 µM
OVCAR-8 ovarian
  GI50: 38.3 µM
  TGI: > 100 µM
PC-3 prostate
  GI50: 50.5 µM
  TGI: > 100 µM
MCF7 breast
  GI50: 44.9 µM
  TGI: > 100 µM
BT-549 breast
  GI50: 33.3 µM
  TGI: > 100 µM
DU-145 prostate
  GI50: 43 µM
  TGI: > 100 µM
M14 melanoma
  GI50: 19.1 µM
  TGI: 46.8 µM
SK-MEL-28 melanoma
  GI50: 26.6 µM
  TGI: > 100 µM
NCI-H522 lung
  GI50: 22.2 µM
  TGI: 56.8 µM
MOLT-4 leukemia
  GI50: > 100 µM
  TGI: > 100 µM
HL-60(TB) leukemia
  GI50: 85.4 µM
  TGI: > 100 µM
RXF 393 renal
  GI50: 27 µM
  TGI: 65.1 µM
UACC-257 melanoma
  GI50: 20.9 µM
  TGI: 51 µM
U251 CNS
  GI50: 17 µM
  TGI: > 100 µM
786-0 renal
  GI50: 26.5 µM
  TGI: 79.2 µM
HOP-62 NSCLC
  GI50: 27.7 µM
  TGI: > 100 µM
EKVX NSCLC
  GI50: 28.7 µM
  TGI: 91.1 µM
MALME-3M melanoma
  GI50: 47.2 µM
  TGI: > 100 µM
SW-620 colon
  GI50: 38.4 µM
  TGI: > 100 µM
SF-268 CNS
  GI50: 18.9 µM
  TGI: 67.2 µM
UO-31 renal
  GI50: 40.8 µM
  TGI: > 100 µM
SK-MEL-5 melanoma
  GI50: 19.6 µM
  TGI: 42.3 µM
SNB-75 CNS
  GI50: 84.1 µM
  TGI: > 100 µM
NCI-H460 lung
  GI50: 27 µM
  TGI: > 100 µM
